Target: T1, ABHD17B (Homo sapiens, UniProt Q5VST6)
T1 construct: hABHD17B recombinantly expressed in HEK293T cells (membrane proteome)
T1 sequence (Q5VST6 1-288): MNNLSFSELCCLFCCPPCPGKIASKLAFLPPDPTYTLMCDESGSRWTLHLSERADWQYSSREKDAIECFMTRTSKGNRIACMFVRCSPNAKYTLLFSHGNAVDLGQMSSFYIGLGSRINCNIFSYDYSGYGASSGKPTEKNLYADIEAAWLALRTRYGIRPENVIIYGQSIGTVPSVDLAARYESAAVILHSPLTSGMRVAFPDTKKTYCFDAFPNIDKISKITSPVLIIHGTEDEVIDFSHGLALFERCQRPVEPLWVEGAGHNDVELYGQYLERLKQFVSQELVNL
Experiment: competitive gel-based ABPP with FP-Rh in transfected HEK293T membrane proteome
Assay type: biochemical

IC50: 76 nM
Substance: ABD778

— article doi:10.1101/2025.03.20.644389, “In vivo validation of the palmitoylation cycle as a therapeutic target in NRAS-mutant cancer” (bioRxiv, 2025)
